Measurements reported in patent publication US8592572B2, “Liposome containing shRNA molecule targeting a thymidylate synthase and use thereof” (Delta-Fly Pharma, Inc., priority 2011, dated 2013).

How the values were obtained:
MSTO 211H tumor = test: Antitumor effects of PEG-modified lipoplex upon systemic administration to MSTO 211H cancer-bearing mouse; type: in vivo, BALB/c nu/nu male mice; details: MSTO 211H tumor-bearing mice; day 21 from beginning of administration; lipoplex 40 μg shRNA i.v. 6 times; pemetrexed 100 mg/kg i.p. 6 times
Procedure: BALB/c nu/nu male mice were subcutaneously inoculated with a MSTO 211H cell suspension (5×10^6 cells/100 μL). On day 14 from tumor cell inoculation, mice with tumor volumes of 50-100 mm^3 were subjected to an in vivo experiment.
The PEG-modified lipoplex prepared in Example 5 was administered via the mouse caudal vein to the MSTO 211H tumor bearing mice at a dose of 40 μg/200 μL (in terms of the shRNA amount) at 1-day intervals for 6 times in total starting on day 14 after tumor transplantation.
When the existing chemotherapeutic agent, pemetrexed sodium hydrate (Alimta (registered trademark) (Eli Lilly Japan K.K.)), was used in combination with the lipoplex, the agent was intraperitoneally administered 6 times in total (day 1, 2, 3, 8, 9 and 10) with 100 mg/kg starting on day 14 after tumor transplantation.
Carcinostatic activity was determined with tumor growth inhibition rate (TGI) (%) at day 21 from beginning of the administration. The TGI (%) was calculated in the same manner as described in the Example 6.

MSTO 211H cells = test: Human plura malignant mesothelioma cell proliferation inhibitory effects of shRNA, MTT; type: cell-based; details: 5 or 10 nM shRNA, in the presence of pemetrexed sodium hydrate 10 ng/mL
Procedure: The experiment was carried out according to the method described in Example 3, except for using human plura malignant mesothelioma cell line (MSTO 211H) instead of human colorectal carcinoma cell line (DLD-1 or DLD-1/FU) and using pemetrexed sodium hydrate (Alimta (registered trademark) (Eli Lilly Japan K.K.)) instead of 5-FU as an existing chemotherapeutic agent. In the transfection, the final concentration of shRNA per well was either 5 or 10 nM. Pemetrexed sodium hydrate was added to a fresh medium at 10 ng/mL
Cell proliferation rate (%) was calculated in the same manner as described in the Example 3. FIG. 6 show the results.

[1] = tested on: thymidylate synthase (TS); test: siRNA and shRNA-induced TS expression inhibition (transfection with Lf RNAi MAX, Western blotting); type: cell-based, human; details: 1, 5 or 10 nM, 72 hours after transfection
Procedure: Lipofectamine™ RNAi MAX (hereafter referred to as “Lf RNAi MAX”), which is a cationic liposome, was used as a transfection reagent.
shRNA or siRNA prepared in Example 1 and Lf RNAi MAX were separately diluted with OptiMEM. The resulting solutions were mixed at a ratio of shRNA or siRNA to Lf RNAi MAX of 100 (pmol): 5 (μL). Here, equivalent amounts of the shRNA or siRNA solution and the Lf RNAi MAX solution were used. The obtained liquid mixture was left at room temperature for 10 to 20 minutes, resulting in complex (lipoplex) formation.
Each lipoplex was directly added to a 10-cm dish containing OptiMEM to adjust the total volume to 5 ml. Next, DLD-1 or DLD-1/FU cell suspension (10 ml) was seeded on the dish (500,000 cells/dish) so as to result in a final total volume of 15 ml, followed by transfection. Here, the final concentration of shRNA or siRNA was adjusted to 1, 5, or 10 nM. After the initiation of transfection, culture was carried out in a medium at 37° C. under 5% CO2 for 72 hours. […]
For detection of TS and β-actin, overnight reaction was carried out at 4° C. using the following primary antibodies each diluted with Tween buffer: a mouse monoclonal anti-human TS antibody (1:1000) (ANASPEC, Inc., CA, USA); and a mouse monoclonal anti-human β-actin antibody (1:500) (Bio Vision, Inc., CA, USA). […] The band of each protein of interest was detected on X-ray film.

DLD-1/FU cells = test: Cancer cell proliferation inhibitory effects of siRNA and shRNA, MTT, DLD-1/FU; type: cell-based, human; details: 5 nM siRNA/shRNA, in the presence of 5-FU 10 μg/mL
Procedure: (§1) In this Example, experimentation was performed on a 96-well plate scale. A lipoplex obtained as in the case of Example 2 was directly added to wells containing OptiMEM to adjust the total volume to 50 μl per well. Next, a DLD-1 or DLD-1/FU cell (human colonic intestinal adenocarcinoma cell) suspension (2,000 cells/100 μl) was added to the wells to which the lipoplex had been added (final total volume: 150 μl), followed by transfection. Here, the final concentration of shRNA or siRNA per well was 5 nM.
(§2) The medium was removed from each well 24 hours after the initiation of transfection. A fresh medium containing or not containing an existing chemotherapeutic agent, 5-FU, was added thereto (200 μl per well). Here, 5-FU was added to DLD-1 so as to result in a concentration of 0.1 μg/mL. 5-FU was added to DLD-1/FU so as to result in a concentration of 10 μg/mL. The medium was removed 0, 24, 48, 72, or 96 hours after the addition of the fresh medium. […] Also, the 0.5% MTT solution was added to cell-free wells to obtain a background absorbance.
(§3) After the completion of incubation, acidic isopropanol (150 μl) was added to each well. […] Absorbance was determined at a wavelength of 570 nm using a plate reader. Then, the cell proliferation rate was calculated. […]

DLD-1 cells = test: Cancer cell proliferation inhibitory effects of siRNA and shRNA, MTT, DLD-1; type: cell-based, human; details: 5 nM siRNA/shRNA, in the presence of 5-FU 0.1 μg/mL
Procedure: as §1, §2, §3

Row | Compound | tumor growth inhibitory effects (TGI) (MSTO 211H tumor) | inhibition of cell proliferation (MSTO 211H cells) | TS expression inhibition ([1]; DLD-1/FU cells) | TS expression inhibition ([1]; DLD-1 cells) | inhibition of cell proliferation (DLD-1/FU cells) | inhibition of cell proliferation (DLD-1 cells)
1 | Nc1nc2[nH]cc(CCc3ccc(C(=O)N[C@@H](CCC(=O)O)C(=O)O)cc3)c2c(=O)[nH]1 [pemetrexed sodium hydrate] | approximately 28% |  |  |  |  | 
2 | shTS: shRNA targeting TS, SEQ ID NO: 8, 5′-GUAACACCAUCGAUCAUGAUAGUGCUCCUGGUUGUCAUGAUCGAUGGUGUUACUU-3′, with two-uracil 3′ overhang (short hairpin RNA, chemistry not given here, further chemistry not given here) |  | significantly inhibited proliferation | significantly inhibit TS expression | significantly inhibit TS expression | significantly inhibited proliferation | significantly inhibited proliferation
